{"source": "patent US20110105330A1", "about": "“C[…]” (priority 2009, published 2011)", "origin": "cited, not measured here", "details": "ph 1.9, 20° C."}
{"smiles": "O=C(O)CNCP(=O)(O)O", "note": "[Glyphosate, n-(phosphonomethyl) glycine]", "values": [{"measurement": "solubility in water", "value": "approximately 10.5 g/L"}]}
